The values below come from patent US20240197623A1, “SILICA-BASED FORMULATIONS OF THERAPEUTIC OLIOGPEPTIDES AND PEPTIDOMIMETICS” (Stealth Bio Therapeutics Inc., priority 2021, published 2024).

Data set [1] can be described thus: Release/stability of API in ammonium bifluoride, stability-indicating RP-HPLC. The note with it: for modification of the API by the formulation process: impurities in fresh API vs API released from microparticle formulations. It counts as physicochemical.
The test system of data set [2] is patients with intermediate age-related macular degeneration (AMD) and high-risk drusen (HRD). The note with it: subcutaneous administration, ReCLAIM, Ophthalmology Science 2022; cited from earlier work.
Data set [3] deals with age-related visual impairment. The following applies: Alam et al., Disease Models & Mechanisms (2021); cited from earlier work.

Where a SMILES comes first, the peptide text is derived from it. [ ]: non-standard residue; d: D form. Dmt = Cc1cc(O)cc(C)c1C[C@H](N)C(=O)O

As to `Cc1cc(O)cc(C)c1C[C@H](NC(=O)[C@H](N)CCCNC(=N)N)C(=O)N[C@@H](CCCCN)c1nc(Cc2ccccc2)no1` [Compound I], the Purity was found to be 99.1% in data set [1] (Control/standard: 16 μg/mL Compound I in H2O), 98.4% in data set [1] (Control/standard: 40 μg/mL Compound I in H2O), 99.2% in data set [1] (Spiked: 16 μg/mL Compound I in 0.1M NH4HF2) and 98.6% in data set [1] (Spiked: 40 μg/mL Compound I in 0.1M NH4HF2). Further, the “modification of the API by the formulation process” value in data set [1] is reported as “not significantly modified”.
For `Cc1cc(O)cc(C)c1C[C@H](NC(=O)[C@H](N)CCCNC(=N)N)C(=O)N[C@@H](CCCCN)C(=O)N[C@@H](Cc1ccccc1)C(N)=O` [elamipretide] (H-[dR][Dmt]KF-NH2), in data set [1], the “modification of the API by the formulation process” value is reported as “not significantly modified”. Further, the safety and tolerability result in data set [2] is “safe and well-tolerated”. In data set [3], the “treatment of photopic age-related loss of spatial vision” value is reported as “effective”.
